Source: patent publication EP0525814A1, “Use of di-tertbutylhydroxyphenyl derivatives for the therapy of inflammatory conditions of the gastrointestinal tract” (BOEHRINGER MANNHEIM GMBH, priority 1991, dated 1993)

System: Akute Kolitis
Assay: Acetic acid-induced acute colitis in rats, morphological evaluation of the mucosa by image analysis
Format: in vivo, Ratten
Details: rat, 3 x 200 mg/kg p.o.; for Anteil von Mukosabereichen Schädigungsstufe 0 (ohne Befund) an der Gesamtfläche des untersuchten Darmbereichs / Anteil von Mukosabereichen Schädigungsstufe 1 (Schwellung des Gewebes mit leichter Rötung) an der Gesamtfläche des untersuchten Darmbereichs / Anteil von Mukosabereichen Schädigungsstufe 2 (starke Rötung des Gewebes mit Einblutungen oder ulcerierenden Nekrosen) an der Gesamtfläche des untersuchten Darmbereichs: rectum and parts of distal colon, 3 days after induction with 5% acetic acid, mean ± spread
[1] = change versus control in words, p<0,01

Experimental: Beispiel 1 und Probucol wurden in einer Dosierung von 200 mg/kg/d 3 mal oral verabreicht. Die Behandlung wurde einen Tag vor Entzündungsinduktion mit 5% Essigsäure begonnen. […] Das Ausmaß einer entzündlichen Reaktion im Darm wird durch Begutachtung des Mukosa-Zustandes und Klassifizierung nach festgelegten Parametern bestimmt.
Akute Kolitis wurde bei 24 h nüchternen Ratten durch rektale Instillation von 5% Essigsäure (1,5ml/Tier) über eine 8 cm lange Sonde induziert. Die morphologische Auswertung des Mukosazustandes aus dem Rektum und Teilen des distalen Kolons (ca. 8 cm) erfolgte am 3. Tag nach Entzündungsinduktion, nachdem die Tiere getötet worden waren. Beispiel 1 und Probucol wurden in einer Dosierung von 200 mg/kg/d 3 mal p.o. (2,5 ml/kg) verabreicht. Die erste Gabe erfolgte 24 h vor Essigsäure-Applikation. Kontrolltieren wurde das Substanzlösungsmittel (20% DMSO in Öl) verabreicht.
Die morphologische Auswertung erfolgte an einem computergeschützten Bildanalyse-System. Es wurde der Anteil von entzündetem Gewebe an der Gesamtdarmoberfläche bestimmt. Folgende Schädigungsstufen wurden unterschieden: • - Stufe 0 : ohne Befund • - Stufe 1 : Schwellung des Gewebes mit leichter Rötung • - Stufe 2 : starke Rötung des Gewebes mit Einblutungen oder ulcerierenden Nekrosen

Row | Structure (SMILES) | Anteil von Mukosabereichen Schädigungsstufe 0 (ohne Befund) an der Gesamtfläche des untersuchten Darmbereichs | Anteil von Mukosabereichen Schädigungsstufe 1 (Schwellung des Gewebes mit leichter Rötung) an der Gesamtfläche des untersuchten Darmbereichs | Anteil von Mukosabereichen Schädigungsstufe 2 (starke Rötung des Gewebes mit Einblutungen oder ulcerierenden Nekrosen) an der Gesamtfläche des untersuchten Darmbereichs | Einfluß auf die durch Essigsäure-Applikation hervorgerufenen Mukosaschädigungen (result in words) | nur noch geschwollene Gewebebereiche (Schädigungsstufe 1) [1] | stark geschädigte Darmanteile (Schädigungsstufe 2) [1] | größere, morphologisch normale Gewebebereiche (Schädigungsstufe 0) (result in words, p<0,01 versus control)
1 | CC(C)(Sc1cc(C(C)(C)C)c(O)c(C(C)(C)C)c1)Sc1cc(C(C)(C)C)c(O)c(C(C)(C)C)c1 [Probucol, reference compound] | 0,12 ± 0,09% | 52,78 ± 9,36% | 47,19 ± 9,36% | keinen Einfluß | – | – | –
2 | CC(C)(C)c1cc(CCNC(=O)CCc2cc(C(C)(C)C)c(O)c(C(C)(C)C)c2)cc(C(C)(C)C)c1O [Beispiel 1] | 17,20 ± 8,93 % | 66,96 ± 8,31 % | 15,75 ± 6,24 % | – | Zunahme | deutlicher Abnahme | nachweisbar
